Results taken from patent US20150366845A1, “PHARMACEUTICAL COMPOSITION FOR DISEASES CAUSED BY PATHOGENIC MICROORGANISMS SUCH AS ASPERGILLUS” (POLA PHARMA INC., priority 2013, published 2015).

Assays:
[1] = system: Trichomonas vaginalis; test: Growth inhibition of clinically isolated Trichomonas vaginalis in Trichomonas medium F (Neutral Red colour, inverted microscope); type: cell-based; settings: for Color / Result of microscopic observation: 72 hours at 37° C.; for Result of microscopic observation: inverted microscope
Description: The effect on Trichomonas vaginalis was investigated for luliconazole of the compound represented by the general formula (1). That is, 5×10^6 cells of clinically isolated Trichomonas vaginalis were seeded in Trichomonas medium F (6.5 mL, contained in tube) produced by Fujiyakuhin Co., Ltd. containing Neutral Red as a marker, and the preculture was carried out for 72 hours (preculture). It was confirmed that Trichomonas grew, the acid was actively produced, and Neutral Red was changed to be yellow. After that, the preculture was added to Trichomonas medium F by every 100 μL in order to carry out the main culture, to which 0.5 mL of a test solution was added. In this situation, the number of protozoas in the solution of preculture was 1.5×10^5 cells/mL. Three series of test solutions were prepared, in which the luliconazole concentrations were 200 μM (final concentration: 35.2 μM), 100 μM (final concentration: 17.6 μM), and 50 μM (final concentration: 8.8 μM), as luliconazole dissolved in 10% methanol saline solution. 0.5 mL of vehicle was added as a control. As for the vehicle, 10% methanol saline solution (final concentration: 0 μM) was used. Stirring was sufficiently performed after the addition, followed by culturing at 37° C. for 72 hours. After the completion of the cultivation, the color was discriminated, and the state of protozoas was observed by using an inverted microscope. […] The same or equivalent investigation as that of Example 1 was performed while changing luliconazole to lanoconazole.

[2] = system: Chlamydia trachomatis (D/UW3/Cx); test: Anti-intracellular parasite action, Chlamydia inclusion bodies in HeLa 229 host cells (fluorescence staining); type: cell-based
Description: The anti-intracellular parasite action was investigated by using Chlamydia trachomatis (D/UW3/Cx). That is, Chlamydia trachomatis was cultured in the presence of ×2 dilution series of 8 to 64 μg/ml of luliconazole by using HeLa 229 cells as the host. MEM added with 8% thermally inactivated FBS, to which 1 μg/ml of cyclohexamide was added, was used as the medium, and the culture was performed for 72 hours in 5% carbon dioxide gas at 37° C. After the culture, inclusion bodies were subjected to the fluorescent staining to be apple green with Chlamydia FA reagent “Seiken” (produced by DENKA SEIKEN Co., Ltd.), and the observation was performed by using a fluorescence microscope.

[3] = final concentration 8.8 μM, Neutral Red marker
[4] = final concentration 17.6 μM, Neutral Red marker
[5] = final concentration 35.2 μM, Neutral Red marker (yellow = acid production by growing Trichomonas)

Row | Structure (SMILES) | Color [1, 3] | Result of microscopic observation ([1]; final concentration 8.8 μM) | Color [1, 4] | Result of microscopic observation ([1]; final concentration 17.6 μM) | Color [1, 5] | Result of microscopic observation ([1]; final concentration 35.2 μM) | observation result of Chlamydia inclusion bodies ([2]; treatment with 8 μg/mL, FIG. 1 panel (A)) | observation result of Chlamydia inclusion bodies ([2]; treatment with 16 μg/mL, FIG. 1 panel (B)) | observation result of Chlamydia inclusion bodies ([2]; treatment with 32 μg/mL, FIG. 1 panel (C)) | growth of Trichomonas ([1]; at 8.8 μM)
1 | N#C/C(=C1/SCC(c2ccccc2Cl)S1)n1ccnc1 (stereo not shown) [lanoconazole, 4-(2-chlorophenyl)-1,3-dithiolane-2-ylidene-1-imidazolyl acetonitrile] | yellow | large number of protozoas were observed | red | protozoas were observed slightly | red | no protozoa was observed | – | – | – | –
2 | N#C/C(=C1/SC[C@@H](c2ccc(Cl)cc2Cl)S1)n1ccnc1 [luliconazole, (R)-(−)-(E)-[4-(2,4-dichlorophenyl)-1,3-dithiolane-2-ylidene]-1-imidazolyl acetonitrile] | yellow | protozoas were observed slightly | red | no protozoa was observed | red | no protozoa was observed | dot-shaped Chlamydia inclusion bodies stained apple green were observed | dot-shaped Chlamydia inclusion bodies stained apple green were observed | No inclusion body was found | inhibits the growth
